Data published in PubChem BioAssay AID330 (DTP/NCI, 2004).
Several values for one entry are separate records, joined by “and”; a condition that tells them apart may be missing. Equal entries are not always repeated. Inconclusive results and toxic doses are left out. The calls were made as follows: active = survival T/C of 150% or more; inactive = T/C below 125% in these data.

Tested on: P388 leukemia ip, CD2F1 mice, survival T/C
Assay: NCI In Vivo Anticancer Drug Screen. Data for tumor model P388 Leukemia (intraperitoneal) in CD2F1 (CDF1) mice
Conditions: endpoint: median survival time, higher = longer survival
In short: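 Mice carrying the transplanted tumor received test compound or vehicle. Survival was recorded in each group, and the value is the treated-group measurement divided by that of the vehicle-treated control group.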

[1] = dose: 50.0 mg/kg/injection, schedule: Q01DX005 (ip), vehicle: saline with Tween-80
[2] = dose: 100.0 mg/kg/injection, schedule: Q01DX005 (ip), vehicle: saline with Tween-80
[3] = dose: 200.0 mg/kg/injection, schedule: Q01DX005 (ip), vehicle: saline with Tween-80
[4] = dose: 50.0 mg/kg/injection, schedule: Q04DX003 (ip), vehicle: saline
[5] = dose: 100.0 mg/kg/injection, schedule: Q04DX003 (ip), vehicle: saline

Measured: T/C

CCCNNC(N)=S
inactive: dose: 12.5 mg/kg/injection, schedule: Q01DX009 (ip), vehicle: other 105 % of control | dose: 25.0 mg/kg/injection, schedule: Q01DX009 (ip), vehicle: other 105 % of control

CCC1(/C=N/NC(N)=S)NC(=O)NC1=O (stereo unspecified)
inactive: [1] 93 % of control | [2] 89 % of control | [3] 94 % of control

COc1ccc2c(c1)CCC1C2=CCS1(=O)=O (stereo unspecified)
inactive: [1] 103 % of control | [2] 94 % of control | [3] 92 % of control

CCN(CC)[Si](C)(C)C
inactive: dose: 60.0 mg/kg/injection, schedule: Q01DX005 (ip), vehicle: saline 93 % of control | dose: 120.0 mg/kg/injection, schedule: Q01DX005 (ip), vehicle: saline 94 % of control

Cc1ncn2cnnc2c1C
inactive: dose: 100.0 mg/kg/injection, schedule: Q04DX003 (ip), vehicle: saline with Tween-80 89 % of control | dose: 200.0 mg/kg/injection, schedule: Q04DX003 (ip), vehicle: saline with Tween-80 95 % of control

CSc1nc(N)c2cnn(C3CCCO3)c2n1 (stereo unspecified)
inactive: [2] 102 % of control | [3] 94 % of control | dose: 400.0 mg/kg/injection, schedule: Q01DX005 (ip), vehicle: saline with Tween-80 97 % of control

COB(C1CCCCC1)C1CCCCC1
inactive: dose: 50.0 mg/kg/injection, schedule: Q01DX009 (ip), vehicle: acetone 100 % of control | dose: 100.0 mg/kg/injection, schedule: Q01DX009 (ip), vehicle: acetone 105 % of control | dose: 200.0 mg/kg/injection, schedule: Q01DX009 (ip), vehicle: acetone 105 % of control

OC1CCC(O)C1(Cl)Cl (stereo unspecified)
inactive: dose: 25.0 mg/kg/injection, schedule: Q04DX003 (ip), vehicle: saline 99 % of control and 96 % of control | [4] 98 % of control and 107 % of control | [5] 98 % of control and 103 % of control and 118 % of control | dose: 200.0 mg/kg/injection, schedule: Q04DX003 (ip), vehicle: saline 98 % of control and 101 % of control and 124 % of control | dose: 400.0 mg/kg/injection, schedule: Q04DX003 (ip), vehicle: saline 117 % of control

O=C1CC(=O)C(C(=O)c2ccccc2)N1 (stereo unspecified)
inactive: [1] 96 % of control | [2] 97 % of control | [3] 94 % of control

O=S(=O)(O)c1ccc2c(c1)C1C(C3C2C2(Cl)C(Cl)=C(Cl)C3(Cl)C2(Cl)Cl)C2(Cl)C(Cl)=C(Cl)C1(Cl)C2(Cl)Cl (stereo unspecified)
inactive: dose: 50.0 mg/kg/injection, schedule: Q01DX009 (ip), vehicle: saline 108 % of control | dose: 100.0 mg/kg/injection, schedule: Q01DX009 (ip), vehicle: saline 108 % of control | dose: 200.0 mg/kg/injection, schedule: Q01DX009 (ip), vehicle: saline 114 % of control

O=C1Nc2ccccc2/C1=N/n1c(-c2ccccc2)nc2ccccc2c1=O
inactive: dose: 12.5 mg/kg/injection, schedule: Q01DX005 (ip), vehicle: Klucel (hydroxypropylcellulose) (HPC) 97 % of control | dose: 25.0 mg/kg/injection, schedule: Q01DX005 (ip), vehicle: Klucel (hydroxypropylcellulose) (HPC) 97 % of control | dose: 50.0 mg/kg/injection, schedule: Q01DX005 (ip), vehicle: Klucel (hydroxypropylcellulose) (HPC) 87 % of control | dose: 100.0 mg/kg/injection, schedule: Q01DX005 (ip), vehicle: Klucel (hydroxypropylcellulose) (HPC) 90 % of control | dose: 200.0 mg/kg/injection, schedule: Q01DX005 (ip), vehicle: Klucel (hydroxypropylcellulose) (HPC) 89 % of control

C[N+]1(C)CCC(=O)C(c2ccccc2)C1 (stereo unspecified)
inactive: [4] 113 % of control | [5] 113 % of control
